This note sets out measurements from patent US10377731B2, “Compositions and methods for cancer treatment” (Boston Biomedical, Inc., priority 2007, dated 2019).

Common to all, as to type: cell-based
Assay [1] deals with Hoechst side population cells. The assay is described as follows: Annexin V staining of Hoechst side population cells. The conditions noted are these: Hoechst side population cells treated with compound. The protocol: Hoechst Side Population: To identify and isolate side population (SP) and non-SP fractions, SW480 cells were removed from the culture dish with trypsin and EDTA, pelleted by centrifugation, washed with phosphate-buffered saline (PBS), and resuspended at 37° C. in Dulbecco's modified Eagle's medium (DMEM) containing 2% FBS and 1 mM HEPES. The cells were then labeled with Hoechst 33342 (Invitrogen) at a concentration of 5 μg/mL. The labeled cells were incubated for 120 minutes at 37° C., either alone or with 50 μM verapamil (Sigma-Aldrich, St. Louis). After staining, the cells were suspended in Hanks' balanced saline solution (HBSS; Invitrogen) containing 2% FBS and 1 mM HEPES, passed a through 40 μm mesh filter, and maintained at 4° C. until flow cytometry analysis. The Hoechst dye was excited at 350 nm, and its fluorescence was measured at two wavelengths using a 450 DF10 (450/20 nm band-pass filter) and a 675LP (675 nm long-pass edge filter) optical filter. The gating on forward and side scatter was not stringent, and only debris was excluded.
Analysis of Apoptosis: Cells treated with or without compound were harvested at 5 hours post treatment for Annexin-V staining. Collected cells were washed with PBS and resuspended in Annexin-V-FITC containing buffer and stained according to manufactures directions (Roche). Annexin-V positive cells were determined by Flow cytometry. […]

A further assay deals with CD133+ cells. In words: Cleaved-Caspase 3 staining of CD133+ cells. The conditions noted are these: CD133+ cells enriched with antibody magnetic beads. An excerpt:
CSC isolation with surface markers: Sorting tumor cells based primarily upon the differential expression of the surface marker(s), such as CD44 or CD133, have accounted for the majority of the highly tumorigenic CSCs described to date. CD133 isolation is based upon the method of Ricci-Vitiani et al., with slight modification. CD133^+ cells were isolated by either fluorescence activated cell sorting (FACS) or magnetic nanoparticle-based separation. Briefly, 10^7 cells/mL were labeled with CD133/1 (AC133)-PE for FACS-based cell sorting; or with CD133/1 (AC133)-biotin (Miltenyi Biotec, Auburn, Calif.) for magnetic field-based separation using the EasySep® biotin selection kit (Miltenyi Biotec) according to the manufacturer's recommendations. Non-specific labeling was blocked with the supplied FcR blocking reagent and antibody incubations (1:11) were carried out on ice for 15 minutes in PBS with 2% FBS and 1 mM EDTA. Five washes were done for EasySep® isolation, whereas cells were pelleted at 400×g for 5 minutes and resuspended at 2×10^7/mL, before sorting by FACS.
Immunofluorescence: Cells treated with indicated compound for an indicated time were either fixed in 4% formaldehyde or cold methanol for the detection of Annexin V, cleaved caspase 3, or stat3, respectively. Coverslips were air dried and rehydrated in PBS at room temperature for 10 min. […]

Assay [2] deals with Paca2 human pancreatic cancer cells. The assay is described as follows: Colony formation, Paca2 cells, single drugs and combinations. The conditions noted are these: Homo sapiens, read-out: Compound 401 (% Inhibition). The protocol: Paca2 human pancreatic cancer cells, A549 human lung cancer cells, and HepG2 human liver cancer cells (American Type Culture Collection) were cultured in Dulbecco's modified Eagle's medium containing 10% fetal bovine serum, 100 units/mL penicillin, 100 μg/mL streptomycin, and 2 mM L-glutamine. […] Erlotinib was from American Custom Chemicals (San Diego, Calif.). Gemcitabine was from Eli Lilly (Indianapolis, Ind.) in an aqueous 20 mM stock solution. Sorafenib was Mass.). Unless otherwise noted all compounds were solubilized in DMSO at 10 mM and aliquoted at −20° C. Exponentially growing Paca2 pancreatic cancer cells were seeded at 1,000 cells per well in 6-well plates and allowed to attach for 24 hours. Increasing concentrations of individual drugs and those in combination were then added to the media for another 24 hours. After 24 hours exposure, the drug was removed and fresh media was added for the next 10-14 days, allowing for colony formation. Cells were fixed and stained with GIEMSA (Gibco BRL). […] Results are an average of duplicate experiments. Alternatively, MTT assays were performed 72 hours post-treatment in A549 and HepG2 cells.

Entries after “also recorded” stand apart in the source; their conditions may differ.

For orientation: inhibition means the relative decrease from the control value, in per cent. As for `CC(=O)c1cc2c(o1)C(=O)c1ccccc1C2=O` [Compound 401, 2-acetylnaphtho[2,3-b]furan-4,9-dione], the “Mode of cell death, Annexin V staining” value in assay [1] is recorded as “dying cells are Annexin V positive; also recorded: apoptotic”. The “Cleaved-Caspase 3 staining (apoptosis)” value in the assay on CD133+ cells was “many of the CD133^+ cells become cleaved-Caspase 3 positive; also recorded: apoptotic”. The inhibition at 0.066 µM in assay [2] (PaCa-2, 401 alone 66 nM) came to 32%. Besides, in assay [2] (PaCa-2, 401 alone 133 nM), the inhibition at 0.133 µM was 66%.
